The record followed here is patent US6653455B1, “Crystallization of doxorubicin hydrochloride” (Mercian Corporation, priority 1998, dated 2003).

Format in all cases: physicochemical
A short description of data set [1]: Average particle diameter, microscopic method (Heywood circle-corresponding diameter). The settings on record: 10 typical crystals on photograph, hydrochloride. An excerpt: The average particle diameter is shown by a diameter of a circle having the same area as an injected area of the particle, a so-called Heywood diameter (circle-corresponding diameter) according to a microscopic method (injected image). A small amount of the crystals was put on a slide glass, and 1 to 2 drops of a hydrophilic surfactant (sesquioleic acid sorbitan) were fallen thereon to disperse them. It was photographed by means of a polarization microscope (photographing lens: 3.3 magnifications, objective lens: 20 magnifications) equipped with a photographing device. Optional 10 pieces of the typical crystals were selected on the photograph to measure a long diameter and a short diameter thereof An (projected) area of the particle was shown by long diameter×short diameter, and the particle diameter was shown by a diameter of a circle having the same area as that obtained above.

A short description of data set [2]: Solubility test (dissolving time in water). The settings on record: 50 mg sample in 5 ml water, 25° C., about 600 rounds/minute stirring, time until completely dissolved; hydrochloride. On the procedure: A beaker of 20 ml (minor diameter: 30 mm) was charged with 5 ml of water and then 50 mg of a DOX.HCl crystal sample, and the sample was stirred at 25° C. and about 600 rounds/minute by means of a magnetic stirrer (diameter 6 mm×length 10 mm). Time consumed until the sample was completely dissolved was measured wile observing the dissolving state every 30 seconds with naked eyes.
The solubility test described above was carried out for a DXR.USP standard product (Lot J) (average particle diameter: 28 μm) as comparison and Examples 2, 46,51, 55, 56, 57 and 58, and the results thereof are shown in Table III.

The nature of data set [3]: Hygroscopicity, cup method (weight change). The conditions noted are these: weight-increasing rate, 25° C., 50 to 60% RH, 15 minutes; crystals dried at 40° C. under vacuum; hydrochloride. Here is the method: Determined by the following cup method. To be specific, about 15 to 20 mg of the sample was put in a cylindrical cup having a diameter of 6 mm and a depth of 6 mm and left standing at a fixed temperature (25° C.) and relative humidity (50 to 60% RH) for 15 minutes to measure a weight change, whereby the hygroscopicity was evaluated.
In the following respective examples, a weight-increasing rate of 0.40% or more is shown by an evaluation criterion that the hygroscopicity is large (−); a weight-increasing rate of 0.20% or more and less than 0.40% is shown by an evaluation criterion that the hygroscopicity is ;intermediate (±); and a weight-increasing rate of less than 0.20% is shown by an evaluation criterion that the hygroscopicity is small: (+).

SMILES strings stand for the structures. Structures can show the parent of a compound that is named as a salt. Marks after values point to notes of the source that are not given here. Where only a bound is given, the exact number is not on record here.

`COc1cccc2c1C(=O)c1c(O)c3c(c(O)c1C2=O)C[C@@](O)(C(=O)CO)C[C@@H]3O[C@H]1C[C@H](N)[C@H](O)[C@H](C)O1` [DXR.USP (comparison), doxorubicin hydrochloride] displayed an Average particle diameter in data set [1] (listed as DXR.USP standard product (Lot J)) of 28 μm. The Dissolving time in data set [2] is given as 3-3.5* minute.

In the case of `COc1cccc2c1C(=O)c1c(O)c3c(c(O)c1C2=O)C[C@@](O)(C(=O)CO)C[C@@H]3O[C@H]1C[C@H](N)[C@H](O)[C@H](C)O1` [Example 2, doxorubicin hydrochloride], in data set [3], the Hygroscopicity entry was “− (a weight-increasing rate of 0.40% or more is shown by an evaluation criterion that the hygroscopicity is large (−))”. For the same molecule, in data set [1], the Average particle diameter is recorded as <4 μm. For the same molecule, the Dissolving time in data set [2] was in the range of 4 to 4.5 min.

With `COc1cccc2c1C(=O)c1c(O)c3c(c(O)c1C2=O)C[C@@](O)(C(=O)CO)C[C@@H]3O[C@H]1C[C@H](N)[C@H](O)[C@H](C)O1` [Example 46, doxorubicin hydrochloride], in data set [3], the Hygroscopicity result was “+ (a weight-increasing rate of less than 0.20% is shown by an evaluation criterion that the hygroscopicity is small: (+))”. Besides, the Average particle diameter in data set [1] turned out to be 86 μm. In data set [2], this molecule returned a Dissolving time of 1.5 to 2 min.

As to `COc1cccc2c1C(=O)c1c(O)c3c(c(O)c1C2=O)C[C@@](O)(C(=O)CO)C[C@@H]3O[C@H]1C[C@H](N)[C@H](O)[C@H](C)O1` [Example 48, doxorubicin hydrochloride], the Hygroscopicity entry in data set [3] is listed as “+ (a weight-increasing rate of less than 0.20% is shown by an evaluation criterion that the hygroscopicity is small: (+))”. The Average particle diameter in data set [1] was found to be 89 μm.

As for `COc1cccc2c1C(=O)c1c(O)c3c(c(O)c1C2=O)C[C@@](O)(C(=O)CO)C[C@@H]3O[C@H]1C[C@H](N)[C@H](O)[C@H](C)O1` [Example 49, doxorubicin hydrochloride], in data set [3], the Hygroscopicity result is reported as “+ (a weight-increasing rate of less than 0.20% is shown by an evaluation criterion that the hygroscopicity is small: (+))”. This molecule returned an Average particle diameter in data set [1] of 71 μm.

Consider `COc1cccc2c1C(=O)c1c(O)c3c(c(O)c1C2=O)C[C@@](O)(C(=O)CO)C[C@@H]3O[C@H]1C[C@H](N)[C@H](O)[C@H](C)O1` [Example 51, doxorubicin hydrochloride], for which, in data set [3], the Hygroscopicity result is “+ (a weight-increasing rate of less than 0.20% is shown by an evaluation criterion that the hygroscopicity is small: (+))”. In addition, the Average particle diameter in data set [1] was determined as 73 μm. Further, the Dissolving time in data set [2] lay in the range of 1.5 to 2 min.

In the case of `COc1cccc2c1C(=O)c1c(O)c3c(c(O)c1C2=O)C[C@@](O)(C(=O)CO)C[C@@H]3O[C@H]1C[C@H](N)[C@H](O)[C@H](C)O1` [Example 55, doxorubicin hydrochloride], in data set [3], the Hygroscopicity result was “+ (a weight-increasing rate of less than 0.20% is shown by an evaluation criterion that the hygroscopicity is small: (+))”. The Average particle diameter in data set [1] was determined as 24 μm. The molecule also registered a Dissolving time in data set [2] of 1.5 to 2 min.

With `COc1cccc2c1C(=O)c1c(O)c3c(c(O)c1C2=O)C[C@@](O)(C(=O)CO)C[C@@H]3O[C@H]1C[C@H](N)[C@H](O)[C@H](C)O1` [Example 56, doxorubicin hydrochloride], the Hygroscopicity entry in data set [3] is given as “+ (a weight-increasing rate of less than 0.20% is shown by an evaluation criterion that the hygroscopicity is small: (+))”. The Average particle diameter in data set [1] came out at 37 μm. The molecule also showed a Dissolving time in data set [2] of 1.5 to 2 min.

For the molecule `COc1cccc2c1C(=O)c1c(O)c3c(c(O)c1C2=O)C[C@@](O)(C(=O)CO)C[C@@H]3O[C@H]1C[C@H](N)[C@H](O)[C@H](C)O1` [Example 57, doxorubicin hydrochloride], the Hygroscopicity result in data set [3] was “± (a weight-increasing rate of 0.20% or more and less than 0.40% is shown by an evaluation criterion that the hygroscopicity is ;intermediate (±))”. For the same molecule, the Average particle diameter in data set [1] amounted to 35 μm. The Dissolving time in data set [2] was in the range of 1.5 to 2 min.

In the case of `COc1cccc2c1C(=O)c1c(O)c3c(c(O)c1C2=O)C[C@@](O)(C(=O)CO)C[C@@H]3O[C@H]1C[C@H](N)[C@H](O)[C@H](C)O1` [Example 58, doxorubicin hydrochloride], the Hygroscopicity entry in data set [3] is reported as “− (a weight-increasing rate of 0.40% or more is shown by an evaluation criterion that the hygroscopicity is large (−))”. The Average particle diameter in data set [1] was <4 μm. For the same molecule, the Dissolving time in data set [2] lay in the range of 14.5 to 15 min.

As to `COc1cccc2c1C(=O)c1c(O)c3c(c(O)c1C2=O)C[C@@](O)(C(=O)CO)C[C@@H]3O[C@H]1C[C@H](N)[C@H](O)[C@H](C)O1` [Example 59, doxorubicin hydrochloride], in data set [3], the Hygroscopicity entry is “− (a weight-increasing rate of 0.40% or more is shown by an evaluation criterion that the hygroscopicity is large (−))”. Further, the Average particle diameter in data set [1] is recorded as <4 μm.
